Values joined by “and” are separate entries in the source; they are usually repeats but may differ in a detail not shown here. Equal entries are not always repeated. Where two headings read alike, the source gives them in different places.
Legend:
[1] = tested on: fatty streak lesions in rabbits on high fat diet; assay type: in vivo, rabbit; design: HDL-C, Wk 0 / HDL-C, Wk 18 or wk 21 / Fatty streak lesions area, Compare to wk 10 of control group / Fatty streak lesions area, Compare to wk 18 of control group: unit not given here; settings: for lipid con. at dissected aorta: triglyceride content; for increase of area of fatty streak lesion: control group 187%
Procedure: The rabbits were fasted for 12 hrs before the beginning of the experiments. Blood parameters were then tested as the normal level of plasma indicators. A total of 52 rabbits were purchased at different time, four of them were used as normal control and fed with normal diet the whole time during the experiments. […] Plasma concentrations of total cholesterol (TC), […] (TG), low density lipoprotein-cholesterol (LDL-C), very low density lipoprotein-cholesterol (VLDL-C), high density lipoprotein-cholesterol (HDL-C) were quantified by enzymatic assays. TC/HDL-C or ([…] ratios were then determined. Animals were sacrificed under deep anesthesia with sodium pentobarbital 25 mg/kg IV. The entire aorta from the aortic valve to the iliac bifurcation was removed from each rabbit and opened longitudinally. […] Atheromatous lesions were measured without staining Atheromatous lesions were manually traced in the photographs, and the percent area of the atheromatous lesions was calculated. Sample of aorta from animals were homogenated. And the content of lipid was determined.

[2] = tested on: atherosclerosis in ApoE knock out mouse on high fat diet
Text: 10 ApoE ko mice were fed with regular chow diet and used as negative control group. 50 ApoE ko mice were fed with high fat diet (35% kcal fat, 1% cholesterol) for 8 weeks, and then the plasma samples were collected for lipid profile measurement before the treatment. 50 ApoE ko mice were assigned into 5 groups based on the fasting overnight plasma TC and HDL level.
5.2. Study Timeline: • 23 Dec. 2011: 60 ApoE mice arrived at chempartner and were housed in the animal facility in the building #3 for the acclimation. • 6 Jan. 2012: Measured the body weight for each mouse. 50 mice were fed with high fat diet and 10 mice were fed with normal chow diet. • 2 Mar. 2012: All mice were fasted over night and plasma samples (about 300 ul whole blood) were collected for lipid profile measurement before treatment with RAAS antibody. • 19 Mar. 2012 to 6 Apr. […] 2012: All mice were fasted over night and plasma sample for each mouse (about 300 ul whole blood) was collected for lipid profile measurement after 16 weeks treatment. Blood glucose was also measured for each mouse. • 9 Jul. 2012: The study was terminated after 16 weeks treatment. Measure BW, sacrificed each mouse, dissected the aorta, heart, liver and kidney and fixed them in 4% PFA.
Antibody products were administrated by intraperitoneal injection every two days (Monday, Wednesday, and Friday). and the positive compound was administered by p.o every day.
The body weight was weighed weekly during the period of treatment. The fasting overnight blood glucose was measured at the end of study by Roche glucometer.
About 300 ul of blood sample was collected from the orbital vein for each mouse and centrifuged at 7000 rpm for 5 min at 4E and the plasma lipid profile was measured by Roche Modular automatic biochemistry analyzer in DaAn Medical Laboratory
After RAAS antibody products treatment for 16 weeks, all mice were sacrificed. Measured body weight and collected blood sample for each mouse. Weighed liver weight and saved a tiny piece of liver into 4% paraformaldehyde (PFA) fixation solution for further analysis. At same time, take the photos with heart, lung, aortas and two kidneys.
5.8. Oil Red Staining Procedure: • 1. Sacrificed the mice and dissected the heart, aorta, and arteries under dissecting microscope. • 2. Briefly wash with PBS and fixed in 4% paraformaldehyde (PFA) overnight at 4[…]. • 3. Rinse with 60% isopropanol • 4. Stain with freshly prepared Oil Red O working solution 10 min. • 1). Oil red O stock stain: 0.5% powder in isopropanol • 2). Working solution: dilute with distilled water (3:2) and filter with membrane (0.22 um) • 5. Rinse with 60% isopropanol 10 second. • 6. Dispel the adherent bit fat outside of the aorta under the dissecting microscope. • 7. Cut the vascular wall gently and keep the integrated arteries using the micro scissors. • 8. Unfold the vascular inner wall with the cover slides and fix it by water sealing tablet.
Scanning the glasses slides with the Aperio ScanScope system and analyze with the image proplus software to measure the area of atherosclerotic plaque lesion. The results were expressed as the percentage of the total aortic surface area covered by lesions. The operation procedure of software was briefly described as follow: Converted the sys version photos into JPG version, then calibrated it and subsequently selected the red regions and then calculate the total area automatically by image proplus software.
The results were expressed as the Mean±SEM and statistically evaluated by student's t-test.

[3] = APOA1 group 1, Wk 0 (start of high fat diet)
[4] = APOA1 group 1, Wk 10 (before APOA1 administration)
[5] = APOA1 group 1, Wk 18 (end of APOA1 administration)
[6] = APOA1 group 2, Wk 0 (start of high fat diet)
[7] = APOA1 group 2, Wk 10 (before APOA1 administration)
[8] = APOA1 group 2, Wk 21 (end of APOA1 administration)

human Apolipoprotein AI [APOAI]
TC/HDL-C [1, 3]: 1.938
plasma HDL-C [1, 3]: 0.748
plasma LDL-C [1, 3]: 0.282
plasma TCH [1, 3]: 1.152
plasma TG [1, 3]: 0.967
plasma VLDL-C [1, 3]: 0.870
TC/HDL-C [1, 4]: 6.560
plasma HDL-C [1, 4]: 8.261
plasma LDL-C [1, 4]: 21.157
plasma TCH [1, 4]: 36.153
plasma TG [1, 4]: 5.191
plasma VLDL-C [1, 4]: 14.996
TC/HDL-C [1, 5]: 3.000
plasma HDL-C [1, 5]: 1.46
plasma LDL-C [1, 5]: 2.60
plasma TCH [1, 5]: 3.69
plasma TG [1, 5]: 1.17
plasma VLDL-C [1, 5]: 1.09
TC/HDL-C [1, 6]: 4.185
plasma HDL-C [1, 6]: 0.432
plasma LDL-C [1, 6]: 0.472
plasma TCH [1, 6]: 1.430
plasma TG [1, 6]: 0.93
plasma VLDL-C [1, 6]: 0.958
TC/HDL-C [1, 7]: 3.667
plasma HDL-C [1, 7]: 10.168
plasma LDL-C [1, 7]: 19.24
plasma TCH [1, 7]: 34.683
plasma TG [1, 7]: 4.507
plasma VLDL-C [1, 7]: 15.443
TC/HDL-C [1, 8]: 3.844
plasma HDL-C [1, 8]: 1.17
plasma LDL-C [1, 8]: 2.19
plasma TCH [1, 8]: 3.322
plasma TG [1, 8]: 1.94
plasma VLDL-C [1, 8]: 1.14
HDL-C, Wk 0 ([1]; APOAI Group 1): 0.748
lipid con. at dissected aorta ([1]; APOAI Group 1 (n = 7)): 0.025 ± 0.0095 µmol/mg
Fatty streak lesions area ([1]; APOAI Group 1, Wk 18): 43.84%
Fatty streak lesions area, Compare to wk 10 of control group ([1]; APOAI Group 1, Wk 18): 19.03
Fatty streak lesions area, Compare to wk 18 of control group ([1]; APOAI Group 1, Wk 18): −27.36
Fatty streak lesions area, Decrease % (compare to wk 18 of control group) ([1]; APOAI Group 1, Wk 18): 38.43%
Fatty streak lesions area, Increase % (compare to wk 10 of control group) ([1]; APOAI Group 1, Wk 18): 77%
HDL-C, Concentration increased ([1]; APOAI Group 1, wk 0 to wk 18): 0.716
HDL-C, Fold increased ([1]; APOAI Group 1, wk 0 to wk 18): 1.436
HDL-C, Wk 0 ([1]; APOAI Group 2): 0.432
lipid con. at dissected aorta ([1]; APOAI Group 2 (n = 4)): 0.0267 ± 0.0054 µmol/mg
Fatty streak lesions area ([1]; APOAI Group 2, Wk 21): 50.51%
Fatty streak lesions area, Compare to wk 10 of control group ([1]; APOAI Group 2, Wk 21): 25.71
Fatty streak lesions area, Compare to wk 18 of control group ([1]; APOAI Group 2, Wk 21): −20.69
Fatty streak lesions area, Decrease % (compare to wk 18 of control group) ([1]; APOAI Group 2, Wk 21): 29.05%
Fatty streak lesions area, Increase % (compare to wk 10 of control group) ([1]; APOAI Group 2, Wk 21): 104%
HDL-C, Concentration increased ([1]; APOAI Group 2, wk 0 to wk 21): 0.992
HDL-C, Fold increased ([1]; APOAI Group 2, wk 0 to wk 21): 3.078
HDL-C, Wk 18 or wk 21 ([1]; APOAI group 1 (wk 18)): 1.464
decrease of area of fatty streak lesion vs control group ([1]; APOAI group 1 (wk 18)): 38% and 38.43%
TC/HDL-C vs control group ([1]; APOAI group 1, P<0.05): significant decrease
VLDL-C vs control group ([1]; APOAI group 1, P<0.05): significant decrease
increase of area of fatty streak lesion ([1]; APOAI group 1): 77%
rest of plasma lipid values vs control group ([1]; APOAI group 1 and 2): no significant change
HDL-C, Wk 18 or wk 21 ([1]; APOAI group 2 (wk 21)): 1.423
decrease of area of fatty streak lesion vs control group ([1]; APOAI group 2 (wk 21)): 29% and 29.05%
increase of area of fatty streak lesion ([1]; APOAI group 2): 104%
triglyceride content at dissected aorta vs control group ([1]; P<0.05): significantly lower
liver index vs control group ([1]; rabbit, in vivo): no difference
plasma lipid concentrations (TC, TG, LDL-C, VLDL-C, HDL-C) ([1]; vs animal without APOAI treatment): decrease in all plasma lipid concentrations
gross examination of inner surface of aorta ([1]; vs control group): no bumps on the inner surface of aorta
liver gross specimen ([1]; vs wk 10): less fatty change in gross specimen
plasma HDL ([2]; 16 week treatment): mild trend to decrease the HDL level
plaque area and percentage of plaque area from root to right renal artery ([2]; 16 weeks): no significant difference
plaque area and percentage of plaque area in arterial arch area ([2]; 16 weeks): No significant difference
plaque area and percentage of plaque area in total inner vascular area ([2]; 16 weeks): No significant difference
lipid profile ([2]; 16 weeks treatment): did not affect the lipid profile
plasma TG level ([2]; 16 weeks treatment): no effect
plaque lesion area of aorta ([2]; 16 weeks treatment, atorvastatin 40 mg/kg): did not reduce the plaque lesion area of aorta
deaths in treatment groups ([2]; after 15 doses, i.p. daily on weekdays): several mice died in the treatment groups
body weight vs vehicle group ([2]; mouse, in vivo): no significant difference
